Consider 5 molecules from patent publication US9169288B2, “Peptidomimetics and their application” (Instytut Medycyny Doswiadczalnej i Klinicznej im. Miroslawa …, priority 2012, dated 2015).

Common to all, as to conditions: mouse, at 4 hours
Assay [1] has as its system constipation induced by loperamide.
Protocol: The mice were divided into three groups one as control and two administered with loperamide hydrochloride (5 mg/kg).
The test system is the same in assay [2]. The source holds these as a separate data set.
The subject of assay [3] is constipation induced by morphine.
Protocol: The mice were divided into three groups one as control and two administered intraperitoneally with morphine hydrochloride (5 mg/kg).

Like-named read-outs stand apart in the source and are kept apart here.

Turning to `CN(C)C(=O)C(CCN1CCC(O)(c2ccc(Cl)cc2)CC1)(c1ccccc1)c1ccccc1` [loperamide, reference compound], the “wet weight of stools, opioid alone” value in assay [1] (loperamide hydrochloride 5 mg/kg alone, control group 200 mg) stood at 15 mg; in assay [2] (loperamide 5 mg/kg orally in 20% gum arabic alone, control group 200 mg), 22 mg. On to `CN1CC[C@]23c4c5ccc(O)c4O[C@H]2[C@@H](O)C=C[C@H]3[C@H]1C5` [morphine, reference compound], for which the “wet weight of stools, opioid alone” value in assay [3] (morphine hydrochloride 5 mg/kg intraperitoneally alone, control group 200 mg) was determined as 25 mg. Take “Tyrosyl-D-arginyl-cinnamylpiperazine dihydrochloride [peptidomimetic 3]”: the “stools relative to control group” value in assay [2] (loperamide 5 mg/kg with peptidomimetic 10 mg/kg in 20% gum arabic) was found to be 60%. Besides, the “wet weight of stools” value in assay [2] (loperamide 5 mg/kg with peptidomimetic 10 mg/kg in 20% gum arabic, control group 200 mg) amounted to 120 mg. Take “tyrosyl-D-alanyl-glycyl-cinnamylpiperazine hydrochloride [peptidomimetic 1]”: the “stools relative to control group” value in assay [1] (peptidomimetic 10 mg/kg orally 30 minutes before loperamide hydrochloride 5 mg/kg) is 80%. For the same molecule, the “wet weight of stools” value in assay [1] (peptidomimetic 10 mg/kg orally 30 minutes before loperamide hydrochloride 5 mg/kg, control group 200 mg) was found to be 160 mg. For “tyrosyl-D-threonyl-glycyl-phenylalanyl-cinnamylpiperazine hydrochloride [peptidomimetic 2]”, the “reversal of morphine effect on stools” value in assay [3] (peptidomimetic orally 30 minutes before morphine hydrochloride 5 mg/kg intraperitoneally) is “fully reversed morphine effect”.
